This note sets out measurements from ChEMBL document CHEMBL1135433 (J Med Chem, 2002).

The nature of the test: Concentration required for 50% inhibition of Shiga-like toxin type 1 (Stx1A1).

`Nc1nc(O)c2nc(CNc3ccc(C(=O)O)cc3)cnc2n1` [PTEROIC ACID] displayed an IC50 of 600 µM. In the case of `Cc1nc2c(=O)[nH]c(N)nc2o1` it was 1000 µM; in that of `Nc1nc2c(c(=O)[nH]1)CC=N2`, 2000 µM; in that of `Cc1cc2c(O)[nH]c(N)nc-2n1`, 4300 µM.
